In the assay the target is T1, rat metabotropic glutamate receptor 5 (mGluR5) (Rattus norvegicus, UniProt P31424).
T1 construct: expressed in transfected cells; host or cells: HEK 293
Put plainly: Calcium mobilization assay (FLIPR) for negative or positive allosteric activity, HEK 293 cells. The class given is cell-based. The following applies: HEK293, negative allosteric modulation, inhibition of EC80 glutamate response; read-out: FLIPR maximum inhibition. A digest of the protocol:
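HEK 293 cells stably expressing rat mGluR5, Fluo-4 loaded in HEPES-buffered HBSS pH 7.4 with 0.1% BSA and probenecid. Compound added with EC20 (potentiation) or EC80 (inhibition) glutamate; fluorescence read over 3 min at room temperature. Basal-subtracted maximum fluorescence change fitted to Hill equation.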
(Calcium flux is commonly read through the fluorescence of an indicator in the cells.)

In patent publication US8716284B2, “Adamantyl diamide derivatives and uses of same” (H. Lundbeck A/S, priority 2008, dated 2014) one finds Emax data, which are given here for 24 molecules.

T1 sequence (P31424 21-1171 isoform P31424-2 limits assumed): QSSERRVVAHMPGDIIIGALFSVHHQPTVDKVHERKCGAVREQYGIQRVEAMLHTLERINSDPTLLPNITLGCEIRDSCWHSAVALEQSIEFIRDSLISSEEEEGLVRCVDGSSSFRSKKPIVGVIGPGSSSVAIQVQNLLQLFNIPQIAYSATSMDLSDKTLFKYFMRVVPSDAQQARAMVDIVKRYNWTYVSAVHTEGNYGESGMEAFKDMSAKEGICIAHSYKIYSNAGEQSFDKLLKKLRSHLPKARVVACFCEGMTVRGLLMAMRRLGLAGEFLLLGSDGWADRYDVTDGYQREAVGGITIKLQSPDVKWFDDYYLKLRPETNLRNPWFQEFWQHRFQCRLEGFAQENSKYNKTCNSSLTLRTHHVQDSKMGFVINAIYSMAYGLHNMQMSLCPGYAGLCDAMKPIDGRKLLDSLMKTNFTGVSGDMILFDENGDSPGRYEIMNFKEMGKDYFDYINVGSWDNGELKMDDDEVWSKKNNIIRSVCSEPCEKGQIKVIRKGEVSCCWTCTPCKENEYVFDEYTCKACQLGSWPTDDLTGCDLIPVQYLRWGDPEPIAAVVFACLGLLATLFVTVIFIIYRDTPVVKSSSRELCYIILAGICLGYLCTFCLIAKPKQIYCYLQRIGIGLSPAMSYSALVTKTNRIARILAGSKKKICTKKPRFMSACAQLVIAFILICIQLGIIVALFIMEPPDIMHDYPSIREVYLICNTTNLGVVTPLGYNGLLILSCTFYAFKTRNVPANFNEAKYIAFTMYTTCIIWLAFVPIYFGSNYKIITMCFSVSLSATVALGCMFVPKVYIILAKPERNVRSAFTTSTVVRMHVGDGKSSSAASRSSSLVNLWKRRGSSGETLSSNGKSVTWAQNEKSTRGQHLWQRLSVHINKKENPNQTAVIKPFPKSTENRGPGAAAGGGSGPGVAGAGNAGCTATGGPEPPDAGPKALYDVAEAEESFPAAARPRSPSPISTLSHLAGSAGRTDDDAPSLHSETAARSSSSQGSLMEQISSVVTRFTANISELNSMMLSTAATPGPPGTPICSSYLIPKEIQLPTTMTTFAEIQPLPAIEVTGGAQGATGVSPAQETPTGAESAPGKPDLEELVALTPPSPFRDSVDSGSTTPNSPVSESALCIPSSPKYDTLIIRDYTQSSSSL

Consider `COCCCNc1cccc(C(=O)NC23CC4CC(CC(NC(=O)c5cccc(F)c5)(C4)C2)C3)n1` [Example 241, 6-(3-Methoxy-propylamino)-pyridine-2-carboxylic acid [3-(3-fluoro-benzoylamino)-adamantan-1-yl]-amide], for which the Emax was in the range of 63 to 99%.

Take `Cc1cccc(C(=O)NC23CC4CC(C2)CC(NC(=O)c2cccc(N5CCC[C@H]5CO)n2)(C4)C3)n1` [Example 237, 6-((S)-2-Hydroxymethyl-pyrrolidin-1-yl)-pyridine-2-carboxylic acid {3-[(6-methyl-pyridine-2-carbonyl)-amino]-adamantan-1-yl}-amide]: the Emax was in the range of 63 to 99%.

`O=C(NC12CC3CC(C1)CC(NC(=O)c1ccn4ccnc4c1)(C3)C2)c1cccc(F)c1` [Example 99, Imidazo[1,2-a]pyridine-7-carboxylic acid [3-(3-fluoro-benzoylamino)-adamantan-1-yl]-amide]: the Emax fell in the range of 63 to 99%.

Take `Cc1cccc(C(=O)NC23CC4CC(CC(NC(=O)c5cccc(F)c5)(C4)C2)C3)n1` [Example 30, 6-Methyl-pyridine-2-carboxylic acid [3-(3-fluoro-benzoylamino)-adamantan-1-yl]-amide]: the Emax fell in the range of 63 to 99%.

On to `Cc1cccc(C(=O)NC23CC4CC(CC(NC(=O)c5ccc6ocnc6c5)(C4)C2)C3)n1` [Example 122, Benzoxazole-5-carboxylic acid {3-[(6-methyl-pyridine-2-carbonyl)-amino]-adamantan-1-yl}-amide], for which the Emax was 70 to 99%.

For the molecule `Cc1cncc(C(=O)NC23CC4CC(CC(NC(=O)c5cc(Br)ccn5)(C4)C2)C3)n1` [Example 176, 6-Methyl-pyrazine-2-carboxylic acid {3-[(4-bromo-pyridine-2-carbonyl)-amino]-adamantan-1-yl}-amide], the Emax lay within 63 to 99%.

For `Cn1nc(C(=O)NC23CC4CC(CC(NC(=O)c5ccccn5)(C4)C2)C3)cc1-c1ccco1` [Example 9, Pyridine-2-carboxylic acid {3-[(5-furan-2-yl-1-methyl-1H-pyrazole-3-carbonyl)-amino]-adamantan-1-yl}-amide], the Emax was 90 to 99%.

For the molecule `O=C(NC12CC3CC(C1)CC(NC(=O)c1cn4cc(Cl)ccc4n1)(C3)C2)c1ccccn1` [Example 86, 6-Chloro-imidazo[1,2-a]pyridine-2-carboxylic acid {3-[(pyridine-2-carbonyl)-amino]-adamantan-1-yl}-amide], the Emax was 63 to 99%.

In the case of `CN(CCO)c1cccc(C(=O)NC23CC4CC(CC(NC(=O)c5cccc(F)c5)(C4)C2)C3)n1` [Example 213, 6-[(2-Hydroxy-ethyl)-methyl-amino]-pyridine-2-carboxylic acid [3-(3-fluoro-benzoylamino)-adamantan-1-yl]-amide], the Emax was in the range of 63 to 99%.

Turning to `Cc1cccc(C(=O)NC23CC4CC(C2)CC(NC(=O)c2cn5cc(Cl)ccc5n2)(C4)C3)n1` [Example 50, 6-Chloro-imidazo[1,2-a]pyridine-2-carboxylic acid {3-[(6-methyl-pyridine-2-carbonyl)-amino]-adamantan-1-yl}-amide], the Emax was in the range of 63 to 99%.

Regarding `Cc1cccc(C(=O)NC23CC4CC(CC(NC(=O)c5ccc6occc6c5)(C4)C2)C3)n1` [Example 33, 6-Methyl-pyridine-2-carboxylic acid {3-[(benzofuran-5-carbonyl)-amino]-adamantan-1-yl}-amide], the Emax was in the range of 63 to 99%.

Turning to `CN(C)CCCNc1cccc(C(=O)NC23CC4CC(CC(NC(=O)c5cccc(F)c5)(C4)C2)C3)n1` [Example 247, 6-(3-Dimethylamino-propylamino)-pyridine-2-carboxylic acid [3-(3-fluoro-benzoylamino)-adamantan-1-yl]-amide], the Emax was in the range of 63 to 99%.

For `Cc1ccc2nc(C(=O)NC34CC5CC(CC(NC(=O)c6ccccn6)(C5)C3)C4)cn2c1` [Example 90, 6-Methyl-imidazo[1,2-a]pyridine-2-carboxylic acid {3-[(pyridine-2-carbonyl)-amino]-adamantan-1-yl}-amide], the Emax lay within 63 to 99%.

For `CC(=O)NCCNc1cccc(C(=O)NC23CC4CC(CC(NC(=O)c5cccc(C)n5)(C4)C2)C3)n1` [Example 234, 6-(2-Acetylamino-ethylamino)-pyridine-2-carboxylic acid {3-[(6-methyl-pyridine-2-carbonyl)-amino]-adamantan-1-yl}-amide], the Emax was 63 to 99%.

Turning to `Cc1cccc(C(=O)NC23CC4CC(C2)CC(NC(=O)c2cccc(F)n2)(C4)C3)n1` [Example 135, 6-Methyl-pyridine-2-carboxylic acid {3-[(6-fluoro-pyridine-2-carbonyl)-amino]-adamantan-1-yl}-amide], the Emax lay in the range of 70 to 99%.

Consider `Cc1cncc(C(=O)NC23CC4CC(CC(NC(=O)c5cc(F)cc(Cl)c5)(C4)C2)C3)n1` [Example 163, 6-Methyl-pyrazine-2-carboxylic acid [3-(3-chloro-5-fluoro-benzoylamino)-adamantan-1-yl]-amide], for which the Emax was 70 to 99%.

With `O=C(NC12CC3CC(C1)CC(NC(=O)c1cn4cc(Cl)ccc4n1)(C3)C2)c1cccc(F)c1` [Example 98, 6-Chloro-imidazo[1,2-a]pyridine-2-carboxylic acid [3-(3-fluoro-benzoylamino)-adamantan-1-yl]-amide], the Emax fell in the range of 63 to 99%.

Turning to `Cc1cccc(C(=O)NC23CC4CC(CC(NC(=O)c5cc(C)on5)(C4)C2)C3)n1` [Example 39, 6-Methyl-pyridine-2-carboxylic acid {3-[(5-methyl-isoxazole-3-carbonyl)-amino]-adamantan-1-yl}-amide], the Emax is 63 to 99%.

As to `Cc1ccnc(C(=O)NC23CC4CC(C2)CC(NC(=O)c2cc(C)ccn2)(C4)C3)c1` [Example 11, N,N′-(1,3-Adamantylene)bis(4-methyl-pyridine-2-carboxamide)], the Emax fell in the range of 63 to 99%.

On to `CN(C)C1CCN(c2cccc(C(=O)NC34CC5CC(CC(NC(=O)c6cccc(F)c6)(C5)C3)C4)n2)C1` (stereo not drawn) [Example 217, 6-(3-Dimethylamino-pyrrolidin-1-yl)-pyridine-2-carboxylic acid [3-(3-fluoro-benzoylamino)-adamantan-1-yl]-amide], for which the Emax lay within 63 to 99%.

As for `COCCN(C)c1cccc(C(=O)NC23CC4CC(CC(NC(=O)c5cccc(C)n5)(C4)C2)C3)n1` [Example 207, 6-[(2-Methoxy-ethyl)-methyl-amino]-pyridine-2-carboxylic acid{3-[(6-methyl-pyridine-2-carbonyl)-amino]-adamantan-1-yl}-amide], the Emax lay in the range of 63 to 99%.

For the molecule `O=C(NC12CC3CC(C1)CC(NC(=O)c1ccncn1)(C3)C2)c1ccccn1` [Example 60, Pyrimidine-4-carboxylic acid {3-[(pyridine-2-carbonyl)-amino]-adamantan-1-yl}-amide], the Emax fell in the range of 63 to 99%.

Take `Cc1nccc(C(=O)NC23CC4CC(C2)CC(NC(=O)c2nccc(C(F)(F)F)n2)(C4)C3)n1` [Example 192, 4-Trifluoromethyl-pyrimidine-2-carboxylic acid {3-[(2-methyl-pyrimidine-4-carbonyl)-amino]-adamantan-1-yl}-amide]: the Emax lay within 63 to 99%.

With `O=C(NC12CC3CC(C1)CC(NC(=O)c1cccc(N4CCC[C@H]4CO)n1)(C3)C2)c1cccc(F)c1` [Example 249, 6-((S)-2-Hydroxymethyl-pyrrolidin-1-yl)-pyridine-2-carboxylic acid [3-(3-fluoro-benzoylamino)-adamantan-1-yl]-amide], the Emax was in the range of 63 to 99%.
